Assay results taken from PubChem BioAssay AID180 (DTP/NCI, 2004).
Several values for one entry are separate records, joined by “and”; a condition that tells them apart may be missing. Equal values may be shown once.

System: BDF1 mice, Adenocarcinoma 755 s.c., tumor weight T/C
Assay: NCI In Vivo Anticancer Drug Screen. Data for tumor model Adenocarcinoma 755 (subcutaneous) in B6D2F1 (BDF1) mice
Conditions: endpoint: mean tumor weight, higher = larger tumour
Summary of the method: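 Tumor-bearing mice receive test compound while controls get vehicle alone. Antitumor effect is scored from survival or tumor dimensions as a T/C quotient.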

[1] = dose: 31.25 mg/kg/injection, schedule: Q01DX011 (ip), vehicle: methylcellulose (MC)
[2] = dose: 75.0 mg/kg/injection, schedule: Q01DX011 (ip), vehicle: methylcellulose (MC)
[3] = dose: 150.0 mg/kg/injection, schedule: Q01DX011 (ip), vehicle: methylcellulose (MC)

Compound: C=CC(CN1CC1)OC(C)=O (stereo not given)
- T/C (dose: 0.25 mg/kg/injection, schedule: Q01DX011 (sc), vehicle: saline): 97 % of control
- T/C (dose: 0.5 mg/kg/injection, schedule: Q01DX010 (oral), vehicle: saline): 28 % of control
- T/C (dose: 0.5 mg/kg/injection, schedule: Q01DX011 (ip), vehicle: methylcellulose (MC)): 62 % of control
- T/C (dose: 0.5 mg/kg/injection, schedule: Q01DX011 (sc), vehicle: saline): 94 % of control
- T/C (dose: 1.0 mg/kg/injection, schedule: Q01DX006 (iv), vehicle: saline): 63 % of control
- T/C (dose: 1.0 mg/kg/injection, schedule: Q01DX010 (oral), vehicle: saline): 21 % of control
- T/C (dose: 1.0 mg/kg/injection, schedule: Q01DX011 (ip), vehicle: methylcellulose (MC)): 49 % of control
- T/C (dose: 1.0 mg/kg/injection, schedule: Q01DX011 (sc), vehicle: saline): 83 % of control
- T/C (dose: 1.0 mg/kg/injection, schedule: Q02DX004 (im), vehicle: saline): 93 % of control
- T/C (dose: 1.24 mg/kg/injection, schedule: Q01DX011 (ip), vehicle: carboxymethylcellulose (CMC)): 202 % of control
- T/C (dose: 1.6 mg/kg/injection, schedule: Q01DX011 (ip), vehicle: carboxymethylcellulose (CMC)): 36 % of control
- T/C (dose: 1.69 mg/kg/injection, schedule: Q01DX011 (ip), vehicle: carboxymethylcellulose (CMC)): 81 % of control
- T/C (dose: 1.81 mg/kg/injection, schedule: Q01DX011 (ip), vehicle: carboxymethylcellulose (CMC)): 76 % of control
- T/C (dose: 2.0 mg/kg/injection, schedule: Q01DX006 (iv), vehicle: saline): 66 % of control
- T/C (dose: 2.0 mg/kg/injection, schedule: Q01DX010 (oral), vehicle: saline): 9 % of control
- T/C (dose: 2.0 mg/kg/injection, schedule: Q01DX011 (sc), vehicle: saline): 47 % of control
- T/C (dose: 2.0 mg/kg/injection, schedule: Q02DX004 (im), vehicle: saline): 68 % of control
- T/C (dose: 2.48 mg/kg/injection, schedule: Q01DX011 (ip), vehicle: carboxymethylcellulose (CMC)): 79 % of control
- T/C (dose: 2.7 mg/kg/injection, schedule: Q01DX011 (ip), vehicle: carboxymethylcellulose (CMC)): 33 % of control
- T/C (dose: 3.2 mg/kg/injection, schedule: Q01DX011 (ip), vehicle: carboxymethylcellulose (CMC)): 77 % of control
- T/C (dose: 3.25 mg/kg/injection, schedule: Q01DX011 (oral), vehicle: saline): 50 % of control
- T/C (dose: 3.63 mg/kg/injection, schedule: Q01DX011 (ip), vehicle: carboxymethylcellulose (CMC)): 51 % of control
- T/C (dose: 3.96 mg/kg/injection, schedule: Q01DX011 (ip), vehicle: carboxymethylcellulose (CMC)): 29 % of control and 45 % of control
- T/C (dose: 4.0 mg/kg/injection, schedule: Q01DX006 (iv), vehicle: saline): 38 % of control
- T/C (dose: 4.0 mg/kg/injection, schedule: Q01DX010 (oral), vehicle: saline): 7 % of control
- T/C (dose: 4.0 mg/kg/injection, schedule: Q01DX011 (sc), vehicle: saline): 19 % of control and 40 % of control
- T/C (dose: 4.0 mg/kg/injection, schedule: Q02DX004 (im), vehicle: saline): 57 % of control
- T/C (dose: 6.0 mg/kg/injection, schedule: Q01DX011 (ip), vehicle: carboxymethylcellulose (CMC)): 26 % of control
- T/C (dose: 6.4 mg/kg/injection, schedule: Q01DX011 (ip), vehicle: carboxymethylcellulose (CMC)): 26 % of control
- T/C (dose: 6.6 mg/kg/injection, schedule: Q01DX011 (ip), vehicle: carboxymethylcellulose (CMC)): 7 % of control and 19 % of control
- T/C (dose: 6.75 mg/kg/injection, schedule: Q01DX011 (ip), vehicle: carboxymethylcellulose (CMC)): 21 % of control
- T/C (dose: 7.25 mg/kg/injection, schedule: Q01DX011 (ip), vehicle: carboxymethylcellulose (CMC)): 10 % of control
- T/C (dose: 7.5 mg/kg/injection, schedule: Q01DX011 (ip), vehicle: saline): 2 % of control and 8 % of control
- T/C (dose: 7.5 mg/kg/injection, schedule: Q01DX011 (oral), vehicle: saline): 19 % of control
- T/C (dose: 8.0 mg/kg/injection, schedule: Q01DX006 (iv), vehicle: saline): 16 % of control
- T/C (dose: 8.0 mg/kg/injection, schedule: Q01DX011 (ip), vehicle: carboxymethylcellulose (CMC)): 14 % of control
- T/C (dose: 8.0 mg/kg/injection, schedule: Q01DX011 (sc), vehicle: saline): 9 % of control
- T/C (dose: 8.0 mg/kg/injection, schedule: Q02DX004 (im), vehicle: saline): 27 % of control
- T/C (dose: 9.9 mg/kg/injection, schedule: Q01DX011 (ip), vehicle: carboxymethylcellulose (CMC)): 8 % of control and 11 % of control
- T/C (dose: 12.0 mg/kg/injection, schedule: Q01DX011 (ip), vehicle: carboxymethylcellulose (CMC)): 3 % of control
- T/C (dose: 15.0 mg/kg/injection, schedule: Q01DX011 (ip), vehicle: saline): 1 % of control
- T/C (dose: 62.5 micrograms/kg/injection, schedule: Q01DX011 (oral), vehicle: saline): 51 % of control
- T/C (dose: 125.0 micrograms/kg/injection, schedule: Q01DX011 (oral), vehicle: saline): 37 % of control
- T/C (dose: 250.0 micrograms/kg/injection, schedule: Q01DX011 (oral), vehicle: saline): 72 % of control
- T/C (dose: 500.0 micrograms/kg/injection, schedule: Q01DX011 (oral), vehicle: saline): 86 % of control

Compound: C[C@]12CC[C@H](OC3OC(CO)C(O)C(O)C3O)C[C@H]1CC[C@@H]1[C@@H]2CC[C@]2(C)[C@@H](C3=CCOC3=O)CC[C@]12O (stereo not given in full)
- T/C (dose: 0.13 mg/kg/injection, schedule: Q01DX011 (ip), vehicle: saline): 34 % of control
- T/C (dose: 0.25 mg/kg/injection, schedule: Q01DX011 (ip), vehicle: saline): 35 % of control
- T/C (dose: 0.5 mg/kg/injection, schedule: Q01DX011 (ip), vehicle: saline): 22 % of control and 44 % of control
- T/C (dose: 1.0 mg/kg/injection, schedule: Q01DX011 (ip), vehicle: saline): 3 % of control

Compound: CCn1cnc2c(=S)nc(N)[nH]c21
- T/C (dose: 0.44 mg/kg/injection, schedule: Q01DX011 (ip), vehicle: methylcellulose (MC)): 108 % of control
- T/C (dose: 0.88 mg/kg/injection, schedule: Q01DX011 (ip), vehicle: methylcellulose (MC)): 66 % of control
- T/C (dose: 1.75 mg/kg/injection, schedule: Q01DX011 (ip), vehicle: methylcellulose (MC)): 33 % of control
- T/C (dose: 3.5 mg/kg/injection, schedule: Q01DX011 (ip), vehicle: methylcellulose (MC)): 3 % of control

Compound: CCCCn1cnc2c(SCc3ccccc3)nc(N)nc21
- T/C (dose: 7.81 mg/kg/injection, schedule: Q01DX011 (ip), vehicle: methylcellulose (MC)): 31 % of control
- T/C (dose: 15.62 mg/kg/injection, schedule: Q01DX011 (ip), vehicle: methylcellulose (MC)): 2 % of control
- T/C [1]: 1 % of control

Compound: CC(C)Cn1cnc2c(SCc3ccccc3[N+](=O)[O-])nc(N)nc21
- T/C (dose: 37.5 mg/kg/injection, schedule: Q01DX011 (ip), vehicle: methylcellulose (MC)): 42 % of control
- T/C [2]: 97 % of control
- T/C [3]: 62 % of control
- T/C (dose: 300.0 mg/kg/injection, schedule: Q01DX011 (ip), vehicle: methylcellulose (MC)): 14 % of control

Compound: Clc1cccc(CSc2ncnc3nc[nH]c23)c1
- T/C (dose: 3.9 mg/kg/injection, schedule: Q01DX011 (ip), vehicle: methylcellulose (MC)): 56 % of control
- T/C (dose: 7.8 mg/kg/injection, schedule: Q01DX011 (ip), vehicle: methylcellulose (MC)): 57 % of control
- T/C (dose: 15.6 mg/kg/injection, schedule: Q01DX011 (ip), vehicle: methylcellulose (MC)): 20 % of control
- T/C [1]: 3 % of control and 7 % of control
- T/C (dose: 62.5 mg/kg/injection, schedule: Q01DX011 (ip), vehicle: methylcellulose (MC)): 5 % of control

Compound: O=C1Nc2ccccc2SC1c1ccccc1Cl (stereo not given)
- T/C [2]: 94 % of control and 78 % of control
- T/C [3]: 54 % of control and 60 % of control

Compound: S=C(N=Nc1ccccc1)NNc1ccccc1
- T/C (dose: 50.0 mg/kg/injection, schedule: Q01DX011 (ip), vehicle: carboxymethylcellulose (CMC)): 113 % of control
- T/C (dose: 75.0 mg/kg/injection, schedule: Q01DX011 (ip), vehicle: carboxymethylcellulose (CMC)): 152 % of control

Compound: CC1CN1P(=O)(N1CC2CCC(CC2)C1)N1CC1C (stereo not given)
- T/C (dose: 7.0 mg/kg/injection, schedule: Q01DX011 (ip), vehicle: saline): 109 % of control
- T/C (dose: 14.0 mg/kg/injection, schedule: Q01DX011 (ip), vehicle: saline): 87 % of control
- T/C (dose: 28.0 mg/kg/injection, schedule: Q01DX011 (ip), vehicle: saline): 87 % of control

Compound: O=C(CCBr)NCCCCCNC(=O)CCBr
- T/C (dose: 56.0 mg/kg/injection, schedule: Q01DX011 (ip), vehicle: methylcellulose (MC)): 86 % of control
- T/C (dose: 113.0 mg/kg/injection, schedule: Q01DX011 (ip), vehicle: methylcellulose (MC)): 71 % of control
- T/C (dose: 225.0 mg/kg/injection, schedule: Q01DX011 (ip), vehicle: methylcellulose (MC)): 78 % of control
- T/C (dose: 450.0 mg/kg/injection, schedule: Q01DX011 (ip), vehicle: methylcellulose (MC)): 47 % of control

Compound: CCCCN(C)/N=N/c1nc[nH]c1C(N)=O
- T/C (dose: 80.0 mg/kg/injection, schedule: Q01DX011 (ip), vehicle: carboxymethylcellulose (CMC)): 4 % of control

Compound: CC(=O)NCC(=O)O
- T/C (dose: 100.0 mg/kg/injection, schedule: Q01DX011 (ip), vehicle: other): 106 % of control
- T/C (dose: 200.0 mg/kg/injection, schedule: Q01DX011 (ip), vehicle: other): 74 % of control
- T/C (dose: 800.0 mg/kg/injection, schedule: Q01DX011 (ip), vehicle: other): 87 % of control
